Patent US6908915B1, “Tricyclic compounds and their uses as antiarrhythmic antifibrillatory and defibrillatory agents” (Technion Research & Development Foundation Ltd., priority 2000, dated 2005)

Tested on: artificially induced SVF
Experiment: Transformation of electrically induced SVF to TVF in anesthetized cats (antiarrhythmic defibrillating activity)
Type: in vivo
Settings: intravenous, VF type examined before and 2 to 3 min after drug; for Relative activity in dosage of 1 mg/kg: monohydrochloride
Protocol: 10,11-dihydro-5-[(3-N-alkyl)1-oxopropyl] 5-H-dibenzo[b,f]azepin monohydrochloride, 10,11-dihydro-5-[N-? isopropylamino-2propanol)] 5-H-dibenzo [b,f]azepin monohydrochloride and 11-Oxo-10,11-dihydro-5-[(N-alkyl)1-oxopropyl]-5-H-dibenzo [b,e] [1,4] diazepin hydrochloride were synthesized as is described hereinabove and tested for their effectiveness in transforming SVF to TVF, as described herein. […] The experimental method was as follows.
Hydrochloride salts of the compounds were dissolved in saline. Activity of each compound was tested in cats of both sexes. Cats were anesthetized with 15-25 mg/kg intravenous sodium, pentobarbital. The tested compounds were injected intravenously (1-3 mg/kg). The heart of each experimental subject was exposed through midline thoracotomy, and a room air respirator was applied through a tracheal cannula. Lead II electrocardiogram and intra-arterial blood pressure was recorded on a Grass Polygraph (Grass Instrument Co., Quincy, Mass., USA).
Fibrillating stimuli (a train of rectangular pulses of 2 to 15 V, 100 pulses/sec and duration of 0.1 to 1.0 msec, for a period of 1 sec) were delivered through two silver needle electrodes attached to the pericardium on the left ventricle. Fibrillating stimuli were one and a half to twice the strength of the fibrillating threshold.
VF was induced before and after drug administration, according to a previously described procedure. The type of VF was examined before and 2 to 3 min after drug treatment. Each cat served as its own control. In some experiments, a β-adrenergic blocker (propranolol, 0.1-0.6 mg/kg) was administered after drug administration, in order to evaluate the neutralizing effect of the blocker on the compound-induced catecholamine levels. Table l below presents the results.

Structure (SMILES) | Relative activity in dosage of 1 mg/kg | Relative activity in dosage of 2 mg/kg
CC(C)NCC(O)CN1c2ccccc2CCc2ccccc21.Cl (stereo not drawn) [Compound 25bir] | 50% | 100%
CC(C)NCC(O)CN1c2ccccc2CCc2ccccc21.Cl (stereo not drawn) [Compound 25bis] | 100% | 100%
CC(C)NCC(O)CN1c2ccccc2CCc2ccccc21.Cl (stereo not drawn) [Compound 25bi] | 100% | 100%
